IC50 data for 43 molecules are collected here from patent US20260097047A1, “Small molecule inhibitors of the ribosome biogenesis factor NVL2” (Board of Regents, The University of Texas System, priority 2023, published 2026).

The structures appear in SMILES notation.

The first assay deals with HCT116 cells. Nature of the assay: Cell viability assay (CellTiter-Glo, 72 hours) in HCT116 human colorectal cancer cells. The format is cell-based. Particulars: Homo sapiens, HCT-116; Table 5; HCT116, 72 hours; read-out: Activity. In a few lines: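 2,000 cells/well adhered overnight, then compound added by digital dispenser with DMSO normalized to 0.5%. Viability read after 72 h at 37 °C by ATP-based CellTiter-Glo luminescence. IC50 from ten-point curves baseline-corrected to vehicle, five-parameter asymmetric least-squares fit.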
(In general: In ATP-based viability assays light output follows the ATP content of the culture.)
As for `CCC/C=C/CN1C(=O)c2ccccc2Sc2cc(Nc3cc(C4CC4)ccn3)ccc21` [(E)-7-((4-Cyclopropylpyridin-2-yl)amino)-10-(hex-2-en-1-yl)dibenzo[b,f][1,4]thiazepin-11(10H)-one], the IC50 fell in the range of 500 to 1000 nM.

For the molecule `CCC/C=C/CN1C(=O)c2ccccc2Sc2cc(Nc3nccc4ccccc34)ccc21` [(E)-10-(Hex-2-en-1-yl)-7-(isoquinolin-1-ylamino)dibenzo[b,f][1,4]thiazepin-11 (10H)-one], the IC50 was under 500 nM.

As for `CCC/C=C/CN1C(=O)c2ccccc2Sc2cc(Nc3cc(C)ccn3)ccc21` [(E)-10-(Hex-2-en-1-yl)-7-((4-methylpyridin-2-yl)amino)dibenzo[b,f][1,4]thiazepin-11 (10H)-one], the IC50 was 500 to 1000 nM.

Still in this assay, the particulars now being: Homo sapiens, HCT-116; Table 6; HCT116, 72 hours; read-out: Activity.
For `CC#CCN1C(=O)c2ccccc2Sc2cc(NC3COC3)ccc21` [Table 6: —CH2CCMe; oxetan-3-yl; CH/CH; S, 10-(But-2-yn-1-yl)-7-(oxetan-3-ylamino)dibenzo[b,f][1,4]thiazepin-11 (10H)-one], the IC50 is under 500 nM.

As to `CC#CCN1C(=O)c2ccccc2Sc2cc(NC3CC(OC)C3)ccc21` (stereo not drawn) [Table 6: —CH2CCMe; 3-MeOcBu; CH/CH; S, 10-(But-2-yn-1-yl)-7-((3-methoxycyclobutyl)amino)dibenzo[b,f][1,4]thiazepin-11 (10H)-one], the IC50 is under 500 nM.

As to `CC#CCN1C(=O)c2ccccc2Sc2cc(NC3CCOC3C)ccc21` (stereo not drawn) [10-(But-2-yn-1-yl)-7-((2-methyltetrahydrofuran-3-yl)amino)dibenzo[b,f][1,4]thiazepin-11 (10H)-one], the IC50 is under 500 nM.

As to `CC#CCN1C(=O)c2ccccc2Sc2cc(NC3CC4(COC4)C3)ccc21` [7-((2-Oxaspiro[3.3]heptan-6-yl)amino)-10-(but-2-yn-1-yl)dibenzo[b,f][1,4]thiazepin-11 (10H)-one], the IC50 was under 500 nM.

Staying with this assay, now noted: Table 2; HCT116, 72 hours; read-out: Activity.
Regarding `CC#CCN1C(=O)c2ccccc2Sc2cc(NC(=S)N3CCCCC3)cnc21` [Table 2: —CH2CCMe; piperidin-1-yl; CH; N], the IC50 was under 500 nM.

Staying with this assay, now noted: Table 5; HCT116, 72 hours; read-out: Activity.
As to `CC#CCN1C(=O)c2ccccc2Sc2cc(Nc3nccc(C#N)c3F)cnc21`, the IC50 was under 500 nM.

The same assay, now with this note: Table 6; HCT116, 72 hours; read-out: Activity.
Regarding `CC#CCN1C(=O)c2ccccc2Sc2cc(NC3CC4(CC(=O)C4)C3)cnc21`, the IC50 is under 500 nM.

Take `CC#CCN1C(=O)c2ccccc2Sc2cc(NC34CC(C3)C4)ccc21`: the IC50 is under 500 nM.

Take `CC#CCN1C(=O)c2ccccc2Sc2cc(NCCCOC)cnc21` [Table 6: —CH2CCMe; (CH2)3OMe; CH/N; S]: the IC50 was under 500 nM.

Take `CC#CCN1C(=O)c2ccccc2Cc2cc(NC3CC(CO)C3)ccc21` (stereo not drawn): the IC50 is under 500 nM.

Still in this assay, the particulars now being: Table 7; cell viability assay, CellTiter-Glo, 72 hours; scaffold drawing 42 with R^2, R^3, X/Y, Z; read-out: Activity.
`COCCN1C(=O)c2ccccc2Sc2cc(NC(=O)c3ccc(OC(F)F)cc3)ccc21` [—(CH2)2OMe; 4-F2HCOPh; CH/CH; S]: the IC50 is 500 to 1000 nM.

In the case of `COCCN1C(=O)c2ccccc2Sc2cc(NC(=O)c3ccc(F)c(OC)c3)ccc21` [—(CH2)2OMe; 3-MeO,4-FPh; CH/CH; S], the IC50 is 500 to 1000 nM.

`COCCN1C(=O)c2ccc(F)cc2Sc2cc(NC(=O)c3ccoc3)ccc21` [—(CH2)2OMe; furan-3-yl; CF/CH; S]: the IC50 was under 500 nM.

For the molecule `COCCN1C(=O)c2ccccc2Sc2cc(NC(=O)c3ccc(F)c(F)c3)ccc21` [—(CH2)2OMe; 3,4-F2Ph; CH/CH; S], the IC50 fell in the range of 1000 to 5000 nM.

Consider `COCCN1C(=O)c2ccccc2Cc2cc(NC(=O)c3ccoc3)ccc21` [—(CH2)2OMe; furan-3-yl; CH/CH; CH2], for which the IC50 is 1000 to 5000 nM.

As to `COCCN1C(=O)c2ccccc2Sc2cc(NC(=O)c3ccc4oc(=O)[nH]c4c3)ccc21`, the IC50 was in the range of 1000 to 5000 nM.

For the molecule `COCCN1C(=O)c2cc(F)ccc2Sc2cc(NC(=O)c3ccoc3)ccc21` [—(CH2)2OMe; furan-3-yl; CH/CF; S], the IC50 was under 500 nM.

Consider `COCCN1C(=O)c2ccccc2Sc2cc(NC(=O)c3ccc(C(F)(F)F)cc3)ccc21` [—(CH2)2OMe; 4-CF3Ph; CH/CH; S], for which the IC50 lay within 1000 to 5000 nM.

Still in this assay, the particulars now being: Table 8; analogs of scaffold drawing 43 defined by R^2, R^3, X/Y, W; read-out: Activity (IC50 class, cell viability assay).
For the molecule `CC#CCN1C(=O)c2ccc(Cl)cc2Sc2cc(NC(=O)C=CCO)cnc21` [—CH2CCMe; CH—═CHCH2OH; CCI/CH; N], the IC50 is under 500 nM.

With `CC#CCN1C(=O)c2ccccc2Sc2cc(NC(=O)C3CCCCC3)cnc21` [—CH2CCMe; cHex; CH/CH; N], the IC50 is under 500 nM.

For `CC#CCN1C(=O)c2ccccc2Sc2cc(NC(=O)C34CC(C3)C4)ccc21`, the IC50 was under 500 nM.

Take `O=C(Nc1cnc2c(c1)Sc1ccccc1C(=O)N2CC#CC1CC1)C1CCOC1` (stereo not drawn): the IC50 is under 500 nM.

As to `CC#CCN1C(=O)c2ccc(Cl)cc2Sc2cc(NC(=O)[C@H]3C[C@H](OC)C3)ccc21` [—CH2CCMe; trans-3-MeOcBu; CCl/CH; CH], the IC50 was under 500 nM.

With `CC#CCN1C(=O)c2cc(F)ccc2Sc2cc(NC(=O)C3COC3)ccc21` [—CH2CCMe; oxetan-3-yl; CH/CF; CH], the IC50 was under 500 nM.

Take `C#CCN1C(=O)c2ccccc2Sc2cc(NC(=O)C3CC4(CC(=NOC)C4)C3)cnc21` (stereo not drawn): the IC50 was under 500 nM.

`O=C(Nc1cnc2c(c1)Sc1cc(Cl)ccc1C(=O)N2CC#CCl)C1CC1CO` (stereo not drawn) [—CH2CCCl; trans-2-HOCH2-cPr; CCl/CH; N]: the IC50 was under 500 nM.

For the molecule `CC#CCN1C(=O)c2ccccc2Sc2cc(NC(=O)C3CC(OC)C3)ccc21` (stereo not drawn) [—CH2CCMe; cis-3-MeOcBu; CH/CH; CH], the IC50 is under 500 nM.

For the molecule `CC#CCN1C(=O)c2ccccc2Sc2cc(NC(=O)CC3COC3)ccc21` [—CH2CCMe; (oxetan-3-yl)CH2; CH/CH; CH], the IC50 was under 500 nM.

Turning to `COCC1CC1C(=O)Nc1cnc2c(c1)Sc1ccccc1C(=O)N2CC#CC1CC1` (racemic) [—CH2CC^cPr; trans-2-MeOCH2-cPr; CH/CH; N], the IC50 is under 500 nM.

Turning to `COCC=CC(=O)Nc1cnc2c(c1)Sc1ccccc1C(=O)N2CC#CC(F)(F)F` [—CH2CCCF3; CH═CHCH2OMe; CH/CH; N], the IC50 was under 500 nM.

Turning to `CC#CCN1C(=O)c2ccccc2Sc2cc(NC(=O)C3CCC3)cnc21` [—CH2CCMe; cBu; CH/CH; N], the IC50 is under 500 nM.

`CON=C1CC2(C1)CC(C(=O)Nc1cnc3c(c1)Sc1cc(Cl)ccc1C(=O)N3CC#CCl)C2` (stereo not drawn): the IC50 was under 500 nM.

Staying with this assay, now noted: Table 9; HCT116, 72 hours; read-out: Activity.
Take `CO[C@H]1C[C@H](C(=O)Nc2ccc3c(c2)C(C)(O)c2ccccc2C(=O)N3CC#CC2CC2)C1` (stereo partly drawn): the IC50 is under 500 nM.

As to `CC#CCN1C(=O)c2ccccc2C(C)(O)c2cc(NC(=O)[C@H]3C[C@H](OC)C3)ccc21` (stereo partly drawn) [Table 9: —CH2CCMe; trans-3-MeOcBu; CMeOH], the IC50 is under 500 nM.

Regarding `CC#CCN1C(=O)c2ccccc2C(C)c2cc(NC(=O)NCCOC)ccc21` (stereo not drawn) [Table 9: —CH2CCMe; NH(CH2)2OMe; CHMe], the IC50 was under 500 nM.

For the molecule `C#CCN1C(=O)c2ccccc2C(C#N)c2cc(NC(=O)[C@H]3C[C@H](OC)C3)ccc21` (stereo partly drawn) [Table 9: —CH2CCH; trans-3-MeOcBu; CHCN], the IC50 is under 500 nM.

For the molecule `O=C(Nc1ccc2c(c1)Cc1ccccc1C(=O)N2CC#CC1CC1)C1CC2(CC(=NO)C2)C1` (stereo not drawn), the IC50 is under 500 nM.

For the molecule `CC#CCN1C(=O)c2ccccc2C(C)c2cc(NC(=O)CC3COC3)ccc21` (stereo not drawn), the IC50 was under 500 nM.

On to `CC#CCN1C(=O)c2ccccc2C(C)c2cc(NC(=O)C34CC(O)(C3)C4)ccc21` (stereo not drawn), for which the IC50 was under 500 nM.

As for `CC#CCN1C(=O)c2ccccc2C(C)(O)c2cc(NC(=O)C3CC4(CC(=NO)C4)C3)ccc21` (stereo not drawn), the IC50 was under 500 nM.

The same assay, now with this note: cell viability assay; Table 10 analogs of scaffold drawing 45 defined by R2, R3, X/Y, W; read-out: Activity.
With `CC#CCN1C(=O)c2ccc(Cl)cc2Sc2cc(NC(=O)[C@H]3C[C@H](OC)C3)ccc21` [—CH2CCMe; trans-3-MeOcBu; CCl/CH; CH], the IC50 is under 500 nM.

Take `CC#CCN1C(=O)c2ccccc2Sc2cc(NC(=O)C3CC(OC)C3)ccc21` (stereo not drawn) [—CH2CCMe; cis-3-MeOcBu; CH/CH; CH]: the IC50 is under 500 nM.
